Results taken from patent US20070061899A1, “Transgenic mammal with constitutive, tissue-specific cytokine expression and use as a cancer model” (THE TRUSTEES OF COLUMBIA UNIVERSITY IN THE CITY OF NEW YORK, priority 2005, published 2007).

B1: IL-1β: proinflammatory pleiotropic cytokine, infused or injected into mice (protein, UniProt P10749 118-269, looked up)
Interleukin-1 beta: VPIRQLHYRLRDEQQKSLVLSDPYELKALHLNGQNINQQVIFSMSFVQGEPSNDKIPVALGLKGKNLYLSCVMKDGTPTLQLESVDPKQYPKKKMEKRFVFNKIEVKSKVEFESAEFPNWYISTSQAEHKPVFLGNNSGQDIIDFTMESVSS

Experiments:
fibrosarcoma = conditions: control mice, systemic treatments; cited from earlier work
B16 melanoma = conditions: murine B16 model, cited from earlier work
[1] = tested on: IL-1β mice and C57BL/6J mice infected with Helicobacter felis; test: IL-1RA treatment of bone marrow transplanted, Helicobacter felis infected mice; assay type: in vivo, mouse; conditions: hIL-1RA by osmotic minipump, 100 mg/kg/day for 30 days; eight weeks after H. felis infection
Description: Bone marrow transplantation, and Helicobacter felis infection and IL-RA treatment. Bone marrow was isolated from the femurs and tibias of 6-8 week old C57BL/6-TgN [ACThEGFP] (GFP) mice. Total bone marrow was washed, triturated using a 20 gauge needle and passed through a 40 sum nylon mesh cell strainer (Becton Dickson) to produce a single cell suspension in PBS. Recipient IL-β mice and C57BL/6J mice were irradiated with 900 rads from a cesium 137-gamma cell irradiator, reconstituted with 3×10^6 donor marrow cells via a single tail vein injection, and used for experiments after 2 weeks of recovery. The overall level of engraftment was 60-80% as assessed by analysis of β-galactosidase or GFP in peripheral leukocytes. Non-transplanted IL-β mice and C57BL/6 mice served as controls for all injury models. Helicobacter felis (strain 49179) was obtained from the […] (Rockville, Md.), grown as recommended and bacteria enumerated as previously described (Houghton 2004). Two weeks after transplantation, mice were infected by oral gavage with 1×10^7 colony forming units every other day for 3 days. […]
Single cell preparation and FACS analysis. […] All single cell suspensions were stained with FITC-labeled anti-CD34, PE-labeled […] as well as Cy5-labeled anti-CD3 and anti-B220 antibodies (Pharmingen) and analyzed using a FACScan™ flow cytometer. […]

[2] = tested on: tumor development induced by IL-1; conditions: release of 25 ng per day from microencapsulated cells, mice; cited from earlier work
[3] = tested on: C57BL/6J mice and Balb/c mice; test: Continuous infusion of IL-1β into mice (preliminary experiment); assay type: in vivo, mouse; conditions: continuous infusion (13 days)

Molecule	fibrosarcoma growth (fibrosarcoma)	metastases (B16 melanoma)	survival rates (B16 melanoma)	development of gastritis [1]	mobilization of hematopoietic stem cells circulation and stomach tissues [1]	angiogenesis [2]	tumor development [2]	liver metastasis (B16 melanoma; intrasplenic injection)	gastric atrophy [3]
IL-1RA: IL-1 receptor antagonist; binds IL-1 receptor type I without transmitting an activation signal	inhibited	reduced	increased	reduces	reduces	reduced	inhibited	–	–
B1	–	–	–	–	–	–	–	increased	caused gastric atrophy
